Laboratory results reported in US20220145295A1, “ENZYMATIC RNA SYNTHESIS” (President and Fellows of Harvard College, priority 2018, published 2022).

Experiments:
Format in all cases: biochemical
[1] = molecular target: T1, S. cerevisiae poly(A) polymerase (Saccharomyces cerevisiae, UniProt P29468); assay: Modified nucleotide incorporation by S. cerevisiae poly(A) polymerase, denaturing gel electrophoresis; conditions: 37° C., 60 minutes; for incorporation by S. cerevisiae poly(A) polymerase: 2.5 mM modified nucleotide, 0.5 mM Mn^2+, 900 units enzyme
T1 construct: purchased Thermo 74225Z25KU
T1 sequence (P29468 whole entry): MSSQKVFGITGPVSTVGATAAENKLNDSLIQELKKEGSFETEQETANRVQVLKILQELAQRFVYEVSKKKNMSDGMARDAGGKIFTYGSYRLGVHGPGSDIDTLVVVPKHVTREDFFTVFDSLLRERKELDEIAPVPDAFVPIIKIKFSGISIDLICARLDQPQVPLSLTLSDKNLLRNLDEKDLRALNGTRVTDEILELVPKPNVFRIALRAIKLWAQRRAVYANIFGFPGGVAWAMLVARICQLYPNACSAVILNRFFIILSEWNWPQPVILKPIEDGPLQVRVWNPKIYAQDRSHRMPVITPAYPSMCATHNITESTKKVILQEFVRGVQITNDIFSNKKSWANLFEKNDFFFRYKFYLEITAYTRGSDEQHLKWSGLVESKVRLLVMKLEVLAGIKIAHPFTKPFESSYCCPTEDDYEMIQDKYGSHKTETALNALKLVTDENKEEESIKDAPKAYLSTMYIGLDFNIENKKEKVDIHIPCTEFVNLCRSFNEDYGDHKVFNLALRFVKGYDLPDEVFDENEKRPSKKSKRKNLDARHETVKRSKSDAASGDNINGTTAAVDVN
Description: FIGS. 4A and 4B. […] All 2′-modified ribonucleotides were at a final concentration of 2.5 mM and incubated at 37° C. for 60 minutes. The control reaction consisted of all reaction components except nucleotide. […] The negative reaction consisted of all reaction components except nucleotide.
The efficiency of S. cerevisiae poly(A) polymerase (Thermo 74225Z25KU) for incorporating of several 2′-modified was evaluated. The modified nucleotides evaluated included the following: 2′-F-rATP (Trilink N-1007), 2′-Azido-rATP (Trilink N-1045), 2′-Amino-rATP (Trilink N-1046), and 2′-O-Methyl rATP (Trilink N-1015). Extension reactions were supplemented with the appropriate buffers, which included 0.5 mM Mn^2+, 200 pmol of the initiator RNA oligonucleotide, 2.5 mM modified nucleotide, and 900 units of enzyme. Reactions were incubated at 37° C. for 60 minutes before being analyzed with denaturing gel electrophoresis. According to the gel (FIG. 4A), under these reactions conditions S. cerevisiae poly(A) polymerase incorporates all 2′-modified nucleotides (2′-Amino-, 2′-O-Methyl-, 2′-F-, and 2′-Azido-rATP). […] Under the same reaction conditions, the reversible terminator nucleoside triphosphate, 2′-O-allyl-rATP, was tested for controlled incorporation by S. cerevisiae poly(A) polymerase.

Human polymerase μ R387K = molecular target: T2, Human polymerase μ R387K (Homo sapiens, UniProt Q9NP87, R387K); assay: dATP / rATP incorporation by polymerase μ R387K, denaturing gel electrophoresis; conditions: 0.25 mM Mn^2+ and Mg^2+; for incorporation by polymerase μ R387K: poly dT-15-mer initiator
T2 construct: His-tag (pET-28c vector); made in house; host or cells: E. coli (T7 Express)
T2 sequence (Q9NP87 whole entry R387K): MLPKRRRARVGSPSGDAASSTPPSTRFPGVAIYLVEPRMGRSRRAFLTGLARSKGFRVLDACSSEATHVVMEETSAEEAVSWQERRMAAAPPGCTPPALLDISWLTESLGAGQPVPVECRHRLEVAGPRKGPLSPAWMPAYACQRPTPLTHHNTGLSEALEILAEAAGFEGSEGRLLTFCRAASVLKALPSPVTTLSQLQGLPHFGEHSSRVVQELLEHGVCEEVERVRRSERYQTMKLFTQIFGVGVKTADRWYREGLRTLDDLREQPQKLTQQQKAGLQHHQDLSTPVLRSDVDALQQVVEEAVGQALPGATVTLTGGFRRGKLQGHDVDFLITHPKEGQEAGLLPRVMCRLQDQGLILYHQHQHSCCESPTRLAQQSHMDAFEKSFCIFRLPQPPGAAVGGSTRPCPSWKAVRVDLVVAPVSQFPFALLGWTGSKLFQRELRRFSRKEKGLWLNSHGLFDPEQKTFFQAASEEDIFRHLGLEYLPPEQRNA
Description: FIGS. 3A to 3C. […] Denaturing gel electrophoresis analysis of dATP incorporation (FIG. 3B) and rATP incorporation (FIG. 3C) at nucleotide concentrations of 200-50 μM and 5.0-0.62 mM for dATP and rATP, respectively. These reactions were supplemented with 0.25 mM Mn^2+ and Mg^2+. The control reaction consisted of all reaction components except nucleotide. For all reactions, the initiator oligonucleotide was a HPLC-purified poly dT-15-mer.
Human polymerase μ R387K was expressed and purified as described in the materials and methods. Because it was unknown under which reaction conditions polymerase μ R387K functioned optimally, several reaction parameters were initially evaluated. […] Thus, polymerase p R387K, a confirmed DNA/RNA-directed polymerase, is useful for controlled enzymatic RNA synthesis.

[2] = molecular target: T3, S. pombe Cid1 poly(U) polymerase (Schizosaccharomyces pombe, UniProt O13833); assay: Uncontrolled extension with natural and modified nucleotides by S. pombe Cid1 poly(U) polymerase (gel, RNA kinetic assay); conditions: for effect of inorganic pyrophosphatase supplementation on RNA synthesis by poly(U) polymerase: 1 mM ribonucleotide, 0.1 units Yeast Inorganic Pyrophosphatase; for incorporation of natural ribonucleotides by poly(U) polymerase: 1.0 mM nucleotide, 5′-Cy5-poly rU-15-mer, 37° C., 30 minutes, gel and RNA kinetic assay
T3 construct: purchased NEB M0337
T3 sequence (O13833 1-405): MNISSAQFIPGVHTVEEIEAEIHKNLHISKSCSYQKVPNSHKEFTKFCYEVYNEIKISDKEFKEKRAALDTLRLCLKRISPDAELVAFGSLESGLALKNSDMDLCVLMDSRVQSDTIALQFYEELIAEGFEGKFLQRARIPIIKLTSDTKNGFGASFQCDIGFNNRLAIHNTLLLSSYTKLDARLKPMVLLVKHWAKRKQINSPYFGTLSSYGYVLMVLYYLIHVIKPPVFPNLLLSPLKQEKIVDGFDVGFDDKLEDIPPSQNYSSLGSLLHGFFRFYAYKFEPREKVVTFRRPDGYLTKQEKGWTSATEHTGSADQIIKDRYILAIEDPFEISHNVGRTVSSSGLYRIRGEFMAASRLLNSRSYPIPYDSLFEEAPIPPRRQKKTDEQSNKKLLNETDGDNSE

[3] = molecular target: T4, S. pombe poly(U) polymerase (Schizosaccharomyces pombe, UniProt O13833); assay: RNA synthesis by S. pombe poly(U) polymerase with competitive inhibitor (non-hydrolyzable) nucleotide; conditions: with UTP, 30 minutes at 37° C.
T4 sequence (O13833 1-405): T3 sequence (O13833 1-405)

[4] = molecular target: T5, N-terminus His^6-tagged S. pombe poly(U) polymerase (Schizosaccharomyces pombe, UniProt O13833); assay: Activity of expressed N-terminus His6-tagged S. pombe poly(U) polymerase with 2′-O-allyl-ATP; conditions: 1 mM nucleotide, approximately 100 pmol of initiator oligonucleotide, 10 μL, 30 seconds at 37° C.
T5 construct: made in house; host or cells: E. coli (T7 Express)
T5 sequence (O13833 1-405): T3 sequence (O13833 1-405)
Description: FIGS. 13A and 13B. […] The expected molecular weight of the expressed N-terminus His^6-tagged S. pombe poly(U) polymerase is approximately 45 kDa. […] Reactions were supplemented with increasing amounts of initiator oligonucleotide (from 20 pmol to 1000 pmol) to determine the relative conversion rates as a function of initiator oligonucleotide material as performed by concentrated N-terminus His^6-tagged S. pombe poly(U) polymerase. All reaction volumes were 10 μL, the initiator oligonucleotide was a poly-rU-15-mer labeled with a 5′-Cy5 fluorophore. Reactions were incubated at 37° C. for 30 seconds. The control reaction contained all reaction components (initiator oligonucleotide was 20 pmol) with the exception of reversible terminator nucleotide.
The primary sequence for S. pombe poly(U) polymerase (UniProtKB—O13833) was modified by adding the amino acids “[…]” to the N-terminus of the enzyme. These amino acids encode for an N-terminus His^6-tag with the appropriate linkers. Using the protocol outlined in the material and methods section, N-terminus His^6-tagged S. pombe poly(U) polymerase was expressed, purified, and concentrated to a small volume. […] Using the N-terminus His^6-tagged S. pombe poly(U) polymerase, it was determined that approximately 100 pmol of initiator oligonucleotide can be converted to the (+1) product with a conversion rate of >99% (FIG. 13B). […]

[5] = molecular target: T4, S. pombe poly(U) polymerase; assay: Controlled (n+1) extension with reversible terminator nucleotides by S. pombe poly(U) polymerase; conditions: 37° C.

Compound: [N-]=[N+]=N[C@@H]1[C@H](O)[C@@H](COP(=O)(O)OP(=O)(O)OP(=O)(O)O)O[C@H]1n1cnc2c(N)ncnc21 [2′-Azido-rATP, 2′-azido-2′-deoxyadenosine-5′-triphosphate]
- incorporation by S. cerevisiae poly(A) polymerase [1]: incorporates

Compound: CO[C@@H]1[C@H](O)[C@@H](COP(=O)(O)OP(=O)(O)OP(=O)(O)O)O[C@H]1n1cnc2c(N)ncnc21 [2′-O-Methyl rATP, 2′-O-methyladenosine-5′-triphosphate]
- incorporation by S. cerevisiae poly(A) polymerase [1]: incorporates

Compound: Nc1ncnc2c1ncn2[C@H]1C[C@H](O)[C@@H](COP(=O)(O)OP(=O)(O)OP(=O)(O)O)O1 [dATP]
- incorporation by polymerase μ R387K (Human polymerase μ R387K): can incorporate

Compound: O=c1[nH]cc([C@@H]2O[C@H](COP(=O)(O)OP(=O)(O)OP(=O)(O)O)[C@@H](O)[C@H]2O)c(=O)[nH]1 [Pseudouridine, pseudouridine-5′-triphosphate]
- length of RNA oligonucleotides produced ([2]; 2 mM, 1 mM, or 0.5 mM nucleotide, 0.1 units PPi-ase, 30 minutes at 37° C.): 30-45 nt

Compound: Nc1ncnc2c1ncn2[C@@H]1O[C@H](COP(=O)(O)OP(=O)(O)OP(=O)(O)O)[C@@H](O)[C@H]1F [2′-F-rATP, 2′-fluoro-2′-deoxyadenosine-5′-triphosphate]
- incorporation by S. cerevisiae poly(A) polymerase [1]: incorporates

Compound: Nc1ncnc2c1ncn2[C@@H]1O[C@H](COP(=O)(O)OP(=O)(O)OP(=O)(O)O)[C@@H](O)[C@H]1O [rATP]
- nucleotide concentration needed to produce a response similar to 200 μM of dATP (Human polymerase μ R387K): 5 mM
- incorporation by polymerase μ R387K (Human polymerase μ R387K): can incorporate
- effect of inorganic pyrophosphatase supplementation on RNA synthesis by poly(U) polymerase ([2]; 30 minutes at 37° C.): greatest enhancement

Compound: Nc1nc2c(ncn2[C@@H]2O[C@H](COP(=O)(O)OP(=O)(O)OP(=O)(O)O)[C@@H](O)[C@H]2O)c(=O)[nH]1 [rGTP]
- incorporation of natural ribonucleotides by poly(U) polymerase [2]: has activity
- effect of inorganic pyrophosphatase supplementation on RNA synthesis by poly(U) polymerase ([2]; 30 minutes at 37° C.): minimally affected

Compound: O=c1ccn([C@@H]2O[C@H](COP(=O)(O)NP(=O)(O)OP(=O)(O)O)[C@@H](O)[C@H]2O)c(=O)[nH]1 [Uridine-5′-[(α,β)-imido]triphosphate]
- concentrations having little effect on controlling the RNA synthesis reaction [3]: below 0.8 mM
- effect of higher concentrations of non-hydrolyzable ribonucleotide on rUTP incorporation [3]: significantly limited the total number of hydrolyzable rUTP incorporations

Compound: O=c1ccn([C@@H]2O[C@H](COP(=O)(O)OP(=O)(O)OP(=O)(O)O)[C@@H](O)[C@H]2O)c(=O)[nH]1 [rUTP]
- effect of inorganic pyrophosphatase supplementation on RNA synthesis by poly(U) polymerase ([2]; 30 minutes at 37° C.): greatest enhancement

Compound: Nc1ccn([C@@H]2O[C@H](COP(=O)(O)OP(=O)(O)OP(=O)(O)O)[C@@H](O)[C@H]2O)c(=O)n1 [rCTP]
- incorporation of natural ribonucleotides by poly(U) polymerase [2]: has activity
- effect of inorganic pyrophosphatase supplementation on RNA synthesis by poly(U) polymerase ([2]; 30 minutes at 37° C.): minimally affected

Compound: Nc1ncnc2c1ncn2[C@@H]1O[C@H](COP(=O)(O)OP(=O)(O)OP(=O)(O)O)[C@@H](O)[C@H]1N [2′-Amino-rATP, 2′-amino-2′-deoxyadenosine-5′-triphosphate]
- incorporation by S. cerevisiae poly(A) polymerase [1]: incorporates

Compound: C=CCO[C@@H]1[C@H](O)[C@@H](COP(=O)(O)OP(=O)(O)OP(=O)(O)O)O[C@H]1n1cnc2c(N)ncnc21 [2′-O-allyl-ATP]
- conversion rate to the (+1) product [4]: > 99%
- controlled incorporation by S. cerevisiae poly(A) polymerase ([1]; nucleoside triphosphate 250 μM to 4000 μM): positive (n+1) incorporation
- incorporation of reversible terminator by poly(U) polymerase ([5]; 1 mM, 30 minutes, initiator extended by one base): incorporated only a single
- conversion rate of initiator (+0) to extension product (+1) ([5]; optimized conditions, 0.5 minutes): > 99%
- time required to fully convert the initiator oligonucleotide (+0) to extension product (+1) ([5]; optimized conditions, poly-rU-15-mer 5′-Cy5): less than or equal to 0.5 minutes
